Patent US20060211705A1, “'N-(2-chloro-6-methylphenyl)-2-[[6-[4-(2-hydroxyethyl)-1-piperazinyl]-2-methyl-4-pyrimidinyl]amino]-5-thiazolecarboxamides metabolites” (priority 2005, published 2006)

How the values were obtained:
[1] = Metabolite profile of [14C] compound (I) in rat hepatocyte incubations; format: in vitro ADME, Sprague-Dawley rat; details: (Ia) 20 μM, 3 h, 37° C., ~2 million cells/mL; relative distribution in radiochromatographic profile
Protocol: (§1) The compound of formula (I) was used as the [^14C] compound (Ia) (30.4 μCi/mg, radiochemical purity 99.2%), as the monohydrate of the free base. The C-14 label was on the carbon in the 2-position of the thiazole ring.
(§2) Freshly isolated rat hepatocyte preparations were prepared from one male Sprague-Dawley rat. Rat Hepatocytes were prepared according to a standard procedure (Seglen, PO. Preparation of isolated rat liver cells. Methods Cell Biol., 1976, 13: 29-83). Cryopreserved cynomolgus monkey hepatocytes (male, pooled, n=6) and human hepatocytes (3 individual preparation) were purchased from In Vitro Technologies (Baltimore, Md.). Microsomes from male SD Rats (pooled, n=200, 20 mg/mL) and male cynomolgus monkeys (pooled, n=8, 20 mg/mL) were obtained from Xenotech LLC, Kansas City, Kans. Human liver microsomes (male, pooled, n=38) were from BD-Gentest, Woburn, Mass.
(§3) A 6 mM stock solution of the compound of formula (Ia) (the [^14C] of the compound of formula (I) was prepared at by dissolving 3.7 mg of the compound of formula (Ia) into 1:1 acetonitrile/DMSO. The 2 mM stock solution of the compound of formula (Ia) was obtained by diluting an aliquot of the 6 mM stock solution 3-fold with acetonitrile.
Rat hepatocyte suspensions were provided at concentrations of 9.1 million cells/mL with a viability of 90%. The cell suspension was diluted accordingly with modified Krebs-Henseleit buffer to give a final concentration of 2 million cells/mL.
(§4) Viability of the hepatocytes was checked using a Trypan Blue exclusion assay and a hemocytometer. A mixture of 0.1 mL of the hepatocyte suspension and 0.1 mL of trypan blue solution were diluted with 0.8 mL of Krebs-Henseleit buffer. The solution was gently mixed and plated onto a Levy hemocytometer (Hausser Scientific) and the viable cells (unstained) were counted under a light microscope. The viability of the hepatocytes ranged from 77% to 90% at the beginning of the incubations.
(§5) Hepatocyte incubations were conducted at 37° C. for 3 h in a NAPCO CO2 6000 incubator (VWR Scientific Products) under a 5% CO2 atmosphere using an orbital shaker at 90 rpm. For each incubation, the final concentration of compound (Ia) was 20 μM and the hepatocyte concentrations were ˜2 million cells/mL. A control incubation, in the absence of hepatocytes, was also performed for 3 h. The incubations were stopped by adding one volume of ice-cold acetonitrile. Each 0.5 mL incubation contained 0.1 M potassium phosphate buffer (pH 7.4), 2.5 mM MgCl2, 2 mg/mL microsomal protein, and 2.0 mM NADPH. The final substrate concentration was 20 μM. The mixtures were incubated in a shaking water bath at 37° C. for 15 min. Control incubations in the absence of microsomes or NADPH were performed for each species. The reactions were stopped with the addition of 1 mL of ice-cold acetonitrile.
HPLC was performed on a Waters Alliance™ system equipped with Waters 2695 pumps and a photodiode array detector (Waters 2996). A Phenomenex Synergy Polar-RP® column (4.6×250 mm, 5 micron) was used for metabolite separation. All HPLC analyses were performed at 1 mL/min flow rate at room temperature. Two HPLC mobile phase and gradient systems were used because all metabolites could not be completely separated on either of the individual HPLC systems. The first system consisted of (A) water with 0.1% formic acid and (B) acetonitrile with 0.1% formic acid as mobile phase. The linear gradient was as follows: 0 min, 20% B; 1 min, 20% B; 41 min, 35% B; 42 min, 90% B; 44 min, 90% B. The column was re-equilibrated at 20% B for 6 min before the next injection. The second HPLC system was used to separate certain co-eluting metabolites that could not be separated by the first system. The mobile phase consisted of (A) water with 0.1% triflouroacetic acid (TFA) and (B) acetonitrile with 0.1% TFA. The gradient was as follows: 0 min, 20% B; 1 min, 20% B; 51 min, 35% B; 52 min, 90% B; 54 min 90% B. The column was equilibrated at 20% B for 6 min prior to the next injection. […]

[2] = Metabolite profile of [14C] compound (I) in monkey hepatocyte incubations; format: in vitro ADME, cynomolgus monkey; details: (Ia) 20 μM, 3 h, 37° C., ~2 million cells/mL; relative distribution in radiochromatographic profile
Protocol: as §1, §2, §3
Human (3 vials from 3 individuals) and monkey cryopreserved hepatocytes were thawed according to the procedure provided by In Vitro Technologies. Briefly, the caps of the cryovials were loosened to release any trapped liquid nitrogen and kept on ice for 2 min. The caps were tightened and the vials were immersed in a 37° C. water bath for 75-90 sec with gentle shaking. The thawed samples (3 cryovials/[…] for each 50 mL tube) were transferred into 25 mL pre-warmed Krebs-Henseleit buffer in a 50 mL tube and gently inverted. The suspensions were evenly divided into 2 tubes and diluted to 40 mL with pre-warmed Krebs-Henseleit buffer. The tubes were centrifuged in an Eppendorf 5810R centrifuge (Hamburg, Germany) at 200 rpm at 4° C. for 10 min. The supernatant was discarded and the pellet gently suspended in 2 mL of Krebs-Henseleit buffer. All the tubes were combined into one tube, rinsing the empty tubes with 1 mL Krebs-Henseleit buffer. The cells were counted, checked for viability and diluted accordingly with modified Krebs-Henseleit buffer to give a final concentration of 2 million viable cells/mL.
as §4, §5
HPLC was performed on a Waters Alliance™ system equipped with Waters 2695 pumps and a photodiode array detector (Waters 2996). A Phenomenex Synergy Polar-RP® column (4.6×250 mm, 5 micron) was used for metabolite separation. […]

% of Radioactivity in Hepatocytes, Rat [1] [%]	% of Radioactivity in Hepatocytes, Monkey [2] [%]	Compound
1.1	4.5	Cc1nc(Nc2ncc(C(=O)Nc3c(C)cc(O)cc3Cl)s2)cc(N2CCN(CCO)CC2)n1 [M20 (V)]
1.1	4.5	Cc1nc(Nc2ncc(C(=O)Nc3c(Cl)cccc3CO)s2)cc(N2CCN(CCO)CC2)n1 [M24 (VI), N-(2-chloro-6-(hydroxymethyl)phenyl)-2-(6-(4-(2-hydroxyethyl)piperazin-1-yl)-2-methylpyrimidin-4-ylamino)thiazole-5-carboxamide]
88.8	61.2	Cc1nc(Nc2ncc(C(=O)Nc3c(C)cccc3Cl)s2)cc(N2CCN(CCO)CC2)n1 [Parent (I), N-(2-Chloro-6-methylphenyl)-2-[[6-[4-(2-hydroxyethyl)-1-piperazinyl]-2-methyl-4-pyrimidinyl]amino]-5-thiazolecarboxamide]

The remaining lines, values behind:

Compound	% of Radioactivity in Hepatocytes, Rat [1] [%]	% of Radioactivity in Hepatocytes, Monkey [2] [%]
Cc1nc(Nc2ncc(C(=O)Nc3c(C)cccc3Cl)s2)cc(N2CCNCC2)n1 [M4 (II)]	1.6	3.7
Cc1nc(Nc2ncc(C(=O)Nc3c(C)cccc3Cl)s2)cc(N2CC[N+]([O-])(CCO)CC2)n1 [M5 (III)]	2.7	3.2
Cc1nc(Nc2ncc(C(=O)Nc3c(C)cccc3Cl)s2)cc(N2CCN(CC(=O)O)CC2)n1 [M6 (IV), 2-(4-(6-(5-((2-Chloro-6-methylphenyl)carbamoyl)thiazol-2-ylamino)-2-methylpyrimidin-4-yl)piperazin-1-yl)acetic acid]	4.9	6.5
